Our source for the Ki values is patent US9139566B2, “Fluorine-18 and carbon-11 labeled radioligands for positron emission tomography (PET) imaging for LRRK2” (Genentech, Inc., priority 2011, dated 2015).

The structures appear in SMILES notation.

For the test, the target named is LRRK2 (Homo sapiens, UniProt Q5S007). In words: LRRK2 affinity (Ki). The test is classed as binding. The note with it: LRRK2 affinity (micromolar), Table 1.
Chain of LRRK2 (Q5S007 whole entry): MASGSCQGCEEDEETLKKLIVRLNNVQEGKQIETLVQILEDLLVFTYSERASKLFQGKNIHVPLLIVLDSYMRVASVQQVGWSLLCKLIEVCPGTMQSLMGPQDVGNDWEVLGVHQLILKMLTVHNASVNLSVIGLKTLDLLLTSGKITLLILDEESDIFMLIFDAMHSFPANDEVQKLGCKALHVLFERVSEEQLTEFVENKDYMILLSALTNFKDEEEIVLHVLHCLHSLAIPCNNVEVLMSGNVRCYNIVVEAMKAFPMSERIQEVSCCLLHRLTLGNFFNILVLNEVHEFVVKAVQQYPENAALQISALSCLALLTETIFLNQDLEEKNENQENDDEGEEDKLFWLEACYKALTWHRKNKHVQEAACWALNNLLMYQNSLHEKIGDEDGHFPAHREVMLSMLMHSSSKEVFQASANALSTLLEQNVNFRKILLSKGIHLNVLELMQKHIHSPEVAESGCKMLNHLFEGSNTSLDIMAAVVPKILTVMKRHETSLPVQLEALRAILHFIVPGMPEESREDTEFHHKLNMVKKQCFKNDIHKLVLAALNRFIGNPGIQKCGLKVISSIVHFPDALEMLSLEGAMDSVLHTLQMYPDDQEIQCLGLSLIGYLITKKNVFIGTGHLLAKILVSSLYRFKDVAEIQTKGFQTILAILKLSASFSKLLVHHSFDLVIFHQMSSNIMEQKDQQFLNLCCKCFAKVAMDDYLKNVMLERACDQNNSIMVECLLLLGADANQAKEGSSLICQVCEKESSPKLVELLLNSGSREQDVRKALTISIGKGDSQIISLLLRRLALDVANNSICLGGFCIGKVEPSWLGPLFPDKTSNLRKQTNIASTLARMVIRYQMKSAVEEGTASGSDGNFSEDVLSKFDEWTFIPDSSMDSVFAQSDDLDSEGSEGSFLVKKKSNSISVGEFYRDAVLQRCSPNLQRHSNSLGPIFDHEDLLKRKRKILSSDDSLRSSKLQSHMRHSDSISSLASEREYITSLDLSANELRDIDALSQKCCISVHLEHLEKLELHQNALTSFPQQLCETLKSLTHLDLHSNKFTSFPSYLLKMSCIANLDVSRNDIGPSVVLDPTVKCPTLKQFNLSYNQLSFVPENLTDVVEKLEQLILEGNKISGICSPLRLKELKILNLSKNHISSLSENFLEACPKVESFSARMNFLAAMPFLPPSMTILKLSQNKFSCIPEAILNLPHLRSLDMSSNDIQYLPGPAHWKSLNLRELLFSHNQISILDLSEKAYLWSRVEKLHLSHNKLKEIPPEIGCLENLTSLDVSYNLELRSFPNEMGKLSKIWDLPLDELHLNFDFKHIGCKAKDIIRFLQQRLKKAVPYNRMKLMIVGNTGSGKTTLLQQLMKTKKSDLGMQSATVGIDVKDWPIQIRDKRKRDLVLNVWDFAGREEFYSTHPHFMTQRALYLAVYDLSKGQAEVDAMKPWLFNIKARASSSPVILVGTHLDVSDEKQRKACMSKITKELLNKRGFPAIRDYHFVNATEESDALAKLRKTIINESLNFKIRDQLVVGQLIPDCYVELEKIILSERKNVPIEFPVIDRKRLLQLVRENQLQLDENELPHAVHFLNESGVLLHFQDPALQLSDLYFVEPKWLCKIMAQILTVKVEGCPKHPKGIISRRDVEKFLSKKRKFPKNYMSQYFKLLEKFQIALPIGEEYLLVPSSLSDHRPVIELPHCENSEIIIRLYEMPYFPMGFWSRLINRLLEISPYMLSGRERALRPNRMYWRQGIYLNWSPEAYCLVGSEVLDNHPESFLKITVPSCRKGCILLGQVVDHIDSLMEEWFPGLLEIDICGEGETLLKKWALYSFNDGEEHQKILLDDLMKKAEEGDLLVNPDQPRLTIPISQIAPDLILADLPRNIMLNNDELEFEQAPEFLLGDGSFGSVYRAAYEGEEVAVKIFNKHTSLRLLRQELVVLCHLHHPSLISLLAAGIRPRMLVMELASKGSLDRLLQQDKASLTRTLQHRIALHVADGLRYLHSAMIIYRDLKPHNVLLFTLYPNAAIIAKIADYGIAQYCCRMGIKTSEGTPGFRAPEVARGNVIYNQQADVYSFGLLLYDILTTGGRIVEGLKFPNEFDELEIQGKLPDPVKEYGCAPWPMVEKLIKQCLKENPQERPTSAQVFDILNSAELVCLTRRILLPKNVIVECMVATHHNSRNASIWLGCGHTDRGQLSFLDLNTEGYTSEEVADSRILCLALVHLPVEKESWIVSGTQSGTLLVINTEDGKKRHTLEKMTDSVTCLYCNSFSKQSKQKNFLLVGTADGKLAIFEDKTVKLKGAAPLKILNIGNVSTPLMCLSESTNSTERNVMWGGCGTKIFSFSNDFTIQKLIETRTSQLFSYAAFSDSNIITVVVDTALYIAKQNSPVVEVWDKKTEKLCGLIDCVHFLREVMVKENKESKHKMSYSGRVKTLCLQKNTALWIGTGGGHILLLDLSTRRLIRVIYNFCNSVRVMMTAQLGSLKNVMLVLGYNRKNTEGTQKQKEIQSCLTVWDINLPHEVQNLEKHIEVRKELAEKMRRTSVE
As a reminder, the Ki is the dissociation constant of the complex between target and ligand, obtained from inhibition or displacement. Low values mean tighter binding, high ones weaker binding. Consider `COc1nc(Nc2ccc(C(=O)N3CCOCC3)cc2OCCF)ncc1Cl` [Compound 28, (4-(5-chloro-4-methoxypyrimidin-2-ylamino)-3-(2-fluoroethoxy)phenyl)(morpholino) methanone], for which the Ki was 15 nM. The same measure for `CNc1nc(Nc2cnc(N3CCOCC3)cc2OCCF)ncc1C(F)(F)F` [Compound 29, N2-(4-(2-fluoroethoxy)-6-morpholinopyridin-3-yl)-N4-methyl-5-(trifluoromethyl)pyrimidine-2,4-diamine]: 21 nM. `CNc1nc(Nc2ccc(C(=O)N3CCOCC3)cc2OCCF)ncc1C(F)(F)F` [Compound 30, (3-(2-fluoroethoxy)-4-(4-(methylamino)-5-(trifluoromethyl)pyrimidin-2-ylamino)phenyl)(morpholino) methanone] gave a Ki of 2.3 nM. With `CNc1nc(Nc2cnn(C3CCN(CCF)CC3)c2C)ncc1C(F)(F)F` [Compound 31, N2-(1-(1-(2-fluoroethyl)piperidin-4-yl)-5-methyl-1H-pyrazol-4-yl)-N4-methyl-5-(trifluoromethyl)pyrimidine-2,4-diamine] the figure was 4.2 nM; with `COc1nc(Nc2cnn(C3CCN(CCF)CC3)c2C)ncc1Cl` [Compound 32, 5-chloro-N-(1-(1-(2-fluoroethyl)piperidin-4-yl)-5-methyl-1H-pyrazol-4-yl)-4-methoxypyrimidin-2-amine], 21 nM.

With `CNc1nc(Nc2cn(C3CCN(CCF)CC3)nc2C)ncc1C(F)(F)F` [Compound 33, N2-(1-(1-(2-fluoroethyl)piperidin-4-yl)-3-methyl-1H-pyrazol-4-yl)-N4-methyl-5-(trifluoromethyl)pyrimidine-2,4-diamine], the Ki came to 25 nM. Turning to `CNc1nc(Nc2cnn(C)c2CF)ncc1C(F)(F)F` [Compound 34, N2-(5-(fluoromethyl)-1-methyl-1H-pyrazol-4-yl)-N4-methyl-5-(trifluoromethyl)pyrimidine-2,4-diamine], the Ki was found to be 24 nM. With `CNc1nc(Nc2cn(CCF)nc2C)ncc1C(F)(F)F` [Compound 35, N2-(1-(2-fluoroethyl)-3-methyl-1H-pyrazol-4-yl)-N4-methyl-5-(trifluoromethyl)pyrimidine-2,4-diamine] the figure was 1.1 nM; with `CNc1nc(Nc2cnn(CCF)c2C)ncc1C(F)(F)F` [Compound 36, N2-(1-(2-fluoroethyl)-5-methyl-1H-pyrazol-4-yl)-N4-methyl-5-(trifluoromethyl)pyrimidine-2,4-diamine], 1.8 nM. Compound `CNc1nc(Nc2ccc(C(=O)N3CCOCC3)cc2OC)ncc1C(F)(F)F` [Compound 38, (3-methoxy-4-(4-(methylamino)-5-(trifluoromethyl)pyrimidin-2-ylamino)phenyl)(morpholino) methanone] registered a Ki of 2.7 nM.

With `COc1nc(Nc2ccc(C(=O)N3CCOCC3)cc2OCCF)ncc1Cl` [Compound 40, (4-((5-chloro-4-methoxypyrimidin-2-yl)amino)-3-(2-fluoroethoxy)phenyl)(morpholino) methanone], the affinity, expressed as Ki, was 14 nM. Compound `[2H]C([2H])(F)C([2H])([2H])n1ncc(Nc2ncc(C(F)(F)F)c(NC)n2)c1C` [Compound 48, N2-(1-(2-fluoro-1,1,2,2-tetradeutero-ethyl)-5-methyl-1H-pyrazol-4-yl)-N4-methyl-5-(trifluoromethyl)pyrimidine-2,4-diamine] returned a Ki of 2 nM.
